For orientation: IC50 means the concentration needed to halve the response being measured.

The results in this text go back to patent publication US11440913B2, “Aminoimidazopyridazines as kinase inhibitors” (BRISTOL-MYERS SQUIBB COMPANY, priority 2017, dated 2022).

Where a name gives a salt, the structure may show the parent alone. Read-outs that look alike come from different tables or passages of the source.

Assay [1] deals with His-GST-TVMV-hRIPK1(1-324) (Homo sapiens (Human), UniProt Q13546). Nature of the assay: RIPK1 HTRF Binding Assay. Particulars: HTRF binding, 1 h at rt, read-out: RIPK1 (IC50). The procedure, abridged:
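HTRF probe-displacement binding: 1 nM His-GST-TVMV-hRIPK1(1-324) (baculovirus construct), 90.6 nM probe, 0.2 nM anti-GST-Tb in 20 mM HEPES, 10 mM MgCl2, 0.015% Brij-35, 4 mM DTT, 0.05 mg/mL BSA. Incubated 1 h at rt; FRET 520/495 nm ratio, inhibition relative to DMSO-only wells.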
In general terms: Time-resolved FRET reads energy transfer from a long-lived donor to a nearby acceptor.

Assay [2] has as its system MLKL phosphorylation in HT29-L23 human colorectal adenocarcinoma cells. Nature of the assay: MLKL Phosphorylation High-Content Assay. In kind it is cell-based. The settings on record: necroptosis induced with TNFα, SMAC mimetic and Z-VAD, 6 h, read-out: pMLKL (IC50). A digest of the protocol:
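HT29-L23 cells pretreated 30 min at 37 °C with compound (6.25 to 0.106 μM final), then necroptosis induced with TNFα 35 ng/mL, SMAC mimetic 700 nM and Z-VAD 140 nM for 6 h. Fixed cells immunostained for MLKL pS358 and imaged; IC50 and Ymax from 4-parameter logistic fit.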

Sequence of His-GST-TVMV-hRIPK1(1-324) (Q13546 1-324): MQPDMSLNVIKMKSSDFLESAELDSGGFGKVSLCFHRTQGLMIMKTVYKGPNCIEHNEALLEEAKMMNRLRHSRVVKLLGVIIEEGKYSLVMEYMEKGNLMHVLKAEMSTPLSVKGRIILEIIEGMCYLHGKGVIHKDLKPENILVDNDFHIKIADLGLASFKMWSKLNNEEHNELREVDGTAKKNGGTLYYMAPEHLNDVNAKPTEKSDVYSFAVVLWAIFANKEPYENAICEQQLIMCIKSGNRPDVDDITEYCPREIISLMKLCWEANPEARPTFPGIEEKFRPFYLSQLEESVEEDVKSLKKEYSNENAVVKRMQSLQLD

As for `COc1nc(C)c(-c2ccc3nc(NC(C)=O)cn3n2)cc1C(=O)NC(C)c1cc(OC(F)(F)F)ccc1F` (centres unmarked) [Example 279, 5-{2-acetamidoimidazo[1,2-b]pyridazin-6-yl}-N-{1-[2-fluoro-5-(trifluoromethoxy)phenyl]ethyl}-2-methoxy-6-methylpyridine-3-carboxamide, TFA], the figures for the IC50 in assay [1] (TFA) and in assay [2] (TFA) were 47 nM and 51 nM, respectively.
Consider `CC(=O)Nc1cn2nc(-c3ccc(C)c(C(=O)NCc4cc(F)ccc4-c4cnn(C5CC5)c4)c3F)ccc2n1` [Example 410, N-{[2-(1-cyclopropyl-1H-pyrazol-4-yl)-5-fluorophenyl]methyl}-3-{2-acetamidoimidazo [1,2-b]pyridazin-6-yl}-2-fluoro-6-methylbenzamide], for which the IC50 in assay [1] came out at 39 nM; in assay [2] (Homo sapiens), 77 nM.
Take `COc1ncc(-c2ccc3nc(NC(C)=O)cn3n2)cc1C(=O)NC(C)c1cccc(OC(F)(F)F)c1` (centres unmarked) [Example 125, 5-{2-acetamidoimidazo[1,2-b]pyridazin-6-yl}-2-methoxy-N-{1-[3-(trifluoro-methoxy)phenyl]ethyl}pyridine-3-carboxamide]: the figures for the half-maximal inhibitory concentration (IC50) in assay [1] and in assay [2] were 34 nM and 153 nM, respectively.
`CC(=O)Nc1cn2nc(-c3cc(C(=O)NCC[C@@H](O)c4ccc(Cl)cc4)cc(F)c3C)ccc2n1` [Example 373, N-[(3R)-3-(4-chlorophenyl)-3-hydroxypropyl]-3-{2-acetamidoimidazo [1,2-b]pyridazin-6-yl}-5-fluoro-4-methylbenzamide]: the 50% inhibitory concentration (IC50) amounted to 11 nM in assay [1] and 51 nM in assay [2] (Homo sapiens).
Regarding `CC(=O)Nc1cn2nc(-c3cnc(C)c(C(=O)N4CCCC(C(O)c5ccc(F)cc5)C4)c3)ccc2n1` (single isomer, unassigned) [Example 355, N-[6-(5-{3-[(4-fluorophenyl)(hydroxy)methyl]piperidine-1-carbonyl}-6-methylpyridin-3-yl)imidazo[1,2-b]pyridazin-2-yl] acetamide], the values for the half-inhibitory concentration (IC50) in assay [1] and in assay [2] were 223 nM and 553 nM, respectively.
As for “N-({3,5-difluoro-2-[(3S)-oxolan- 3-yloxy]phenyl}methyl)-5-{2- acetamidoimidazo[1,2-b]pyridazin- 6-yl}-2-(D3)methoxypyridine- 3-carboxamide [Example 45]”, the half-inhibitory concentration (IC50) came to 13 nM in assay [1] and 25 nM in assay [2].
As for `[2H]C([2H])([2H])[C@H](NC(=O)c1cc(-c2ccc3nc(NC(C)=O)cn3n2)cnc1C)c1cc(OC(F)(F)F)ccc1F` [Example 198, 5-{2-acetamidoimidazo[1,2-b]pyridazin-6-yl}-N-[(1S)-1-[2-fluoro-5-(trifluoromethoxy)phenyl](2,2,2-deutero)ethyl]-2-methylpyridine-3-carboxamide], the values for the IC50 in assay [1] and in assay [2] (Homo sapiens) were 16 nM and 14 nM, respectively.
`[2H]C([2H])([2H])[C@@H](NC(=O)c1c(OC)ccc(-c2ccc3nc(NC(C)=O)cn3n2)c1F)c1cc(OC(F)(F)F)ccc1F` [Example 378, 3-{2-acetamidoimidazo [1,2-b]pyridazin-6-yl}-2-fluoro-N-[(1R)-1-[2-fluoro-5-(trifluoromethoxy)phenyl](2,2,2-Â^2Hâ,f)ethyl]-6-methoxybenzamide]: the IC50 in assay [1] came to 6 nM; in assay [2] (Homo sapiens), 1 nM.
Regarding `CC(=O)Nc1cn2nc(-c3cncc(C(=O)NCc4ccccc4OCC4CC4)c3)ccc2n1` [Example 239, N-{[2-(cyclopropylmethoxy)phenyl]methyl}-5-{2-acetamidoimidazo [1,2-b]pyridazin-6-yl}pyridine-3-carboxamide], the concentration for half-maximal inhibition (IC50) is 13 nM in assay [1] and 158 nM in assay [2] (Homo sapiens).
As to `COc1ncc(-c2ccc3nc(NC(C)=O)cn3n2)cc1C(=O)NCc1ncccc1OC1CCCC1` [Example 163, N-{[3-(cyclopentyloxy)pyridin-2-yl]methyl}-5-{2-acetamidoimidazo[1,2-b]pyridazin-6-yl}-2-methoxypyridine-3-carboxamide], the IC50 in assay [1] amounted to 12 nM; in assay [2] (Homo sapiens), 17 nM.
